According to ChEMBL document CHEMBL1201862, “PubChem BioAssay data set” (2004):
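Each compound was tested at five concentrations against cells in 96-well plates for 48 hours. Here, GI50 denotes the concentration required for 50% inhibition of growth.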 Activity calls are given as the source filed them. Rule as the data show it: active = GI50 up to about 1.1 µM and inactive = higher.

What was measured:
Test in all cases: NCI tumour cell line growth inhibition, 48 h
786-0 = system: 786-0
A498 = system: A498
A549 = system: A549
ACHN = system: ACHN
BT-549 = system: BT-549
CAKI-1 = system: CAKI-1
CCRF-CEM = system: CCRF-CEM
COLO 205 = system: COLO 205
DU-145 = system: DU-145
EKVX = system: EKVX
HCC 2998 = system: HCC 2998
HCT-116 = system: HCT-116
HCT-15 = system: HCT-15
HL-60 = system: HL-60
HOP-62 = system: HOP-62
HOP-92 = system: HOP-92
HT-29 = system: HT-29
Hs-578T = system: Hs-578T
IGROV-1 = system: IGROV-1
K562 = system: K562
KM12 = system: KM12
LOX IMVI = system: LOX IMVI
M14 = system: M14
MDA-MB-231 = system: MDA-MB-231
MDA-MB-435 = system: MDA-MB-435
MDA-N = system: MDA-N
MOLT-4 = system: MOLT-4
Malme-3M = system: Malme-3M
NCI-H226 = system: NCI-H226
NCI-H23 = system: NCI-H23
NCI-H460 = system: NCI-H460
NCI-H522 = system: NCI-H522
NCI/ADR-RES = system: NCI/ADR-RES
OVCAR-3 = system: OVCAR-3
OVCAR-4 = system: OVCAR-4
OVCAR-5 = system: OVCAR-5
OVCAR-8 = system: OVCAR-8
PC-3 = system: PC-3
RPMI-8226 = system: RPMI-8226
RXF 393 = system: RXF 393
SF-268 = system: SF-268
SF-295 = system: SF-295
SF-539 = system: SF-539
SK-MEL-28 = system: SK-MEL-28
SK-MEL-2 = system: SK-MEL-2
SK-MEL-5 = system: SK-MEL-5
SK-OV-3 = system: SK-OV-3
SN12C = system: SN12C
SNB-19 = system: SNB-19
SNB-75 = system: SNB-75
SR = system: SR
SW-620 = system: SW-620
T47D = system: T47D
TK-10 = system: TK-10
U-251 = system: U-251
UACC-257 = system: UACC-257
UACC-62 = system: UACC-62
UO-31 = system: UO-31
MCF7 = system: MCF7

SMILES: COc1ccc(Cn2c3c(cc(OS(=O)(=O)C(F)(F)F)c2=O)Cc2ccccc2-3)cc1
- GI50 (786-0): 4.89 µM (inactive)
- GI50 (A498): > 50 µM (inactive)
- GI50 (A549): 16.5 µM (inactive)
- GI50 (ACHN): 21.6 µM (inactive)
- GI50 (BT-549): 24.9 µM (inactive)
- GI50 (CAKI-1): 20.9 µM (inactive)
- GI50 (CCRF-CEM): 6.27 µM (inactive)
- GI50 (COLO 205): 9.95 µM (inactive)
- GI50 (DU-145): 20.2 µM (inactive)
- GI50 (EKVX): 20.4 µM (inactive)
- GI50 (HCC 2998): 11.7 µM (inactive)
- GI50 (HCT-116): 14.9 µM (inactive)
- GI50 (HCT-15): 3.22 µM
- GI50 (HL-60): 10.7 µM (inactive)
- GI50 (HOP-62): 21.9 µM (inactive)
- GI50 (HOP-92): 22.3 µM (inactive)
- GI50 (HT-29): > 50 µM (inactive)
- GI50 (Hs-578T): > 50 µM (inactive)
- GI50 (IGROV-1): 22.5 µM (inactive)
- GI50 (K562): 21.5 µM (inactive)
- GI50 (KM12): 26.4 µM (inactive)
- GI50 (LOX IMVI): 10 µM (inactive)
- GI50 (M14): 6.65 µM (inactive)
- GI50 (MDA-MB-231): > 50 µM (inactive)
- GI50 (MDA-MB-435): 19.3 µM (inactive)
- GI50 (MDA-N): 12.9 µM (inactive)
- GI50 (MOLT-4): 12 µM (inactive)
- GI50 (Malme-3M): 16.2 µM (inactive)
- GI50 (NCI-H226): 26.7 µM (inactive)
- GI50 (NCI-H23): 19.7 µM (inactive)
- GI50 (NCI-H460): 3.56 µM (inactive)
- GI50 (NCI-H522): 22 µM (inactive)
- GI50 (NCI/ADR-RES): 2.29 µM (inactive)
- GI50 (OVCAR-3): 9.53 µM (inactive)
- GI50 (OVCAR-4): 19.3 µM (inactive)
- GI50 (OVCAR-5): 20.3 µM (inactive)
- GI50 (OVCAR-8): 13.3 µM (inactive)
- GI50 (PC-3): > 50 µM (inactive)
- GI50 (RPMI-8226): 32.8 µM (inactive)
- GI50 (RXF 393): 29.9 µM (inactive)
- GI50 (SF-268): 12.8 µM (inactive)
- GI50 (SF-295): 18.9 µM (inactive)
- GI50 (SF-539): 10.3 µM (inactive)
- GI50 (SK-MEL-28): 18.7 µM (inactive)
- GI50 (SK-MEL-2): 45.6 µM (inactive)
- GI50 (SK-MEL-5): 10.4 µM (inactive)
- GI50 (SK-OV-3): 25.1 µM (inactive)
- GI50 (SN12C): 16.9 µM (inactive)
- GI50 (SNB-19): 19.1 µM (inactive)
- GI50 (SNB-75): > 50 µM (inactive)
- GI50 (SR): 4.36 µM (inactive)
- GI50 (SW-620): 10.3 µM (inactive)
- GI50 (T47D): 32.3 µM (inactive)
- GI50 (TK-10): 22.3 µM (inactive)
- GI50 (U-251): 19.2 µM (inactive)
- GI50 (UACC-257): 11.9 µM (inactive)
- GI50 (UACC-62): 10.5 µM (inactive)
- GI50 (UO-31): 7.33 µM (inactive)

SMILES: O=C(c1ccc(Cl)cc1)N(C(=O)N1CCCCC1)c1ccccc1
- GI50 (786-0): > 100 µM (inactive)
- GI50 (A498): > 100 µM (inactive)
- GI50 (ACHN): > 100 µM (inactive)
- GI50 (BT-549): 48.3 µM (inactive)
- GI50 (CAKI-1): > 100 µM (inactive)
- GI50 (CCRF-CEM): 23.7 µM (inactive)
- GI50 (COLO 205): 85.9 µM (inactive)
- GI50 (DU-145): > 100 µM (inactive)
- GI50 (EKVX): 33.7 µM (inactive)
- GI50 (HCT-116): > 100 µM (inactive)
- GI50 (HCT-15): 79.4 µM
- GI50 (HL-60): 20.1 µM (inactive)
- GI50 (HT-29): > 100 µM (inactive)
- GI50 (Hs-578T): 41.1 µM (inactive)
- GI50 (IGROV-1): 56.4 µM (inactive)
- GI50 (K562): 31 µM (inactive)
- GI50 (KM12): > 100 µM (inactive)
- GI50 (LOX IMVI): 68.1 µM (inactive)
- GI50 (M14): > 100 µM (inactive)
- GI50 (MCF7): 65.5 µM (inactive)
- GI50 (MDA-MB-231): 42.5 µM (inactive)
- GI50 (MDA-MB-435): > 100 µM (inactive)
- GI50 (MDA-N): > 100 µM (inactive)
- GI50 (MOLT-4): 18.9 µM (inactive)
- GI50 (Malme-3M): 37.3 µM (inactive)
- GI50 (NCI-H226): > 100 µM (inactive)
- GI50 (NCI-H23): 85.5 µM (inactive)
- GI50 (NCI/ADR-RES): 66.5 µM (inactive)
- GI50 (OVCAR-3): > 100 µM (inactive)
- GI50 (OVCAR-5): > 100 µM (inactive)
- GI50 (OVCAR-8): > 100 µM (inactive)
- GI50 (PC-3): 17.7 µM (inactive)
- GI50 (RPMI-8226): 22.6 µM (inactive)
- GI50 (SF-268): > 100 µM (inactive)
- GI50 (SF-539): > 100 µM (inactive)
- GI50 (SK-MEL-28): > 100 µM (inactive)
- GI50 (SK-MEL-2): 25.2 µM (inactive)
- GI50 (SK-MEL-5): 34.2 µM (inactive)
- GI50 (SK-OV-3): 33.9 µM (inactive)
- GI50 (SN12C): > 100 µM (inactive)
- GI50 (SNB-19): > 100 µM (inactive)
- GI50 (SW-620): > 100 µM (inactive)
- GI50 (T47D): 17.6 µM (inactive)
- GI50 (U-251): > 100 µM (inactive)
- GI50 (UACC-62): > 100 µM (inactive)
- GI50 (UO-31): 34.7 µM (inactive)

SMILES: C=C(C)COc1cc(/N=C(/S)OC(C)C)ccc1Cl
- GI50 (786-0): 16.6 µM (inactive)
- GI50 (A549): 12.7 µM (inactive)
- GI50 (ACHN): 17.1 µM (inactive)
- GI50 (BT-549): 10.8 µM (inactive)
- GI50 (CAKI-1): 15.3 µM (inactive)
- GI50 (CCRF-CEM): 13.5 µM (inactive)
- GI50 (COLO 205): 16.3 µM (inactive)
- GI50 (DU-145): 16.7 µM (inactive)
- GI50 (EKVX): 11.8 µM (inactive)
- GI50 (HCC 2998): 15.5 µM (inactive)
- GI50 (HCT-116): 15.2 µM (inactive)
- GI50 (HCT-15): 15.7 µM
- GI50 (HL-60): 15.6 µM (inactive)
- GI50 (HOP-92): 13.6 µM (inactive)
- GI50 (HT-29): 14.4 µM (inactive)
- GI50 (Hs-578T): 20.4 µM (inactive)
- GI50 (IGROV-1): 16.6 µM (inactive)
- GI50 (K562): 11.7 µM (inactive)
- GI50 (KM12): 20.2 µM (inactive)
- GI50 (LOX IMVI): 16.3 µM (inactive)
- GI50 (M14): 17.2 µM (inactive)
- GI50 (MCF7): 15.4 µM (inactive)
- GI50 (MDA-MB-231): 15.4 µM (inactive)
- GI50 (MDA-MB-435): 15.2 µM (inactive)
- GI50 (MDA-N): 16.7 µM (inactive)
- GI50 (MOLT-4): 12.1 µM (inactive)
- GI50 (NCI-H226): 17.9 µM (inactive)
- GI50 (NCI-H23): 16.1 µM (inactive)
- GI50 (NCI-H460): 15.4 µM (inactive)
- GI50 (NCI-H522): 14.9 µM (inactive)
- GI50 (NCI/ADR-RES): 15.2 µM (inactive)
- GI50 (OVCAR-3): 15.8 µM (inactive)
- GI50 (OVCAR-4): 14.5 µM (inactive)
- GI50 (OVCAR-5): 15.7 µM (inactive)
- GI50 (OVCAR-8): 16.2 µM (inactive)
- GI50 (PC-3): 14.7 µM (inactive)
- GI50 (RPMI-8226): 20 µM (inactive)
- GI50 (SF-268): 19.5 µM (inactive)
- GI50 (SF-295): 15.5 µM (inactive)
- GI50 (SF-539): 16.1 µM (inactive)
- GI50 (SK-MEL-28): 17.3 µM (inactive)
- GI50 (SK-MEL-2): 13.6 µM (inactive)
- GI50 (SK-MEL-5): 19.5 µM (inactive)
- GI50 (SK-OV-3): 19.3 µM (inactive)
- GI50 (SN12C): 16.1 µM (inactive)
- GI50 (SNB-19): 18.8 µM (inactive)
- GI50 (SNB-75): 15.2 µM (inactive)
- GI50 (SW-620): 13.7 µM (inactive)
- GI50 (T47D): 13.3 µM (inactive)
- GI50 (TK-10): 15.2 µM (inactive)
- GI50 (U-251): 16.9 µM (inactive)
- GI50 (UACC-257): 17.3 µM (inactive)
- GI50 (UACC-62): 17.3 µM (inactive)
- GI50 (UO-31): 13.5 µM (inactive)
